Measurements: US5760036A, “Aminediol protease inhibitors” (E. R. Squibb & Sons, Inc., priority 1995, dated 1998)

What follows are compounds tested against T1, HIV protease (Human immunodeficiency virus type 1 group M subtype B, UniProt P04585) (assay: HIV Protease Assay). Conditions: 10 μM inhibitor, 4% DMSO, 450 μM substrate, pH 5.5, 30 minutes at 37° C., RP-HPLC.
T1 construct: and purified protease
Type: biochemical
Outline: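 At a single final concentration of 10 μM (4% DMSO), inhibitors were added to a 30-minute, 37° C reaction of purified enzyme with 450 μM H2N-Val-Ser-Gln-Asn-(β-naphthyl-alanine)-Pro-Val-Ile-OH at pH 5.5 (sodium acetate, BSA). Hydrolysis was quantified by reverse-phase HPLC with 220 nm detection after acid quench.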

HIV Protease % Inhibition at 10 μM [%]	Compound
96	CC(C)(CO)OC(=O)N[C@@H](Cc1ccccc1)[C@H](O)CNC[C@@H](O)[C@H](Cc1ccccc1)NC(=O)C1(O)CCCC1(C)C (single isomer, unassigned; isomer b) [Compound 369, [1S-[1R*,2S*(2S*,3R*)]]-[r3-[[3-[[(2,2-Dimethyl-1-hydroxycyclopentyl)-carbonyl]amino]-2-hydroxy-4-phenylbutyl]amino]-2-hydroxy-1-(phenylmethyl)propyl]carbamic acid, 2-hydroxy-1,1-dimethylethyl ester. isomer B]

Same assay, conditions: pH 5.5, 10 μM inhibitor, 4% DMSO, 450 μM substrate, pH 5.5, 30 minutes at 37° C., RP-HPLC; read-out: HIV Protease % Inhibition at 10 μM

inhibition at 10 µM [%]	Compound
35	CC(C)(C)OC(=O)N[C@@H](Cc1ccccc1)[C@H](O)CNC[C@@H](O)[C@H](Cc1ccccc1)NS(=O)(=O)C(C)(C)C [Compound 183, [1S-[1R*,2S*(2S*,3R*)]]-[3-[[3-[[(2,2-Dimethylethyl)sulfonyl]amino]-2-hydroxy-4-phenylbutyl]amino]-2-hydroxy-1-(phenylmethyl)proyl]carbamic acid, 1,1-dimethylethyl ester]
15	CC(C)(C)CCN[C@@H](Cc1ccccc1)[C@H](O)CNC[C@@H](O)[C@H](Cc1ccccc1)NC(=O)OC(C)(C)C [Compound 127, [1S-[1R*,2S*(2S*,3R*)]]-[3-[[3-[(3,3-Dimethylbutyl)amino]-2-hydroxy-4-phenylbutyl]amino]-2-hydroxy-1-(phenylmethyl)propyl]carbamic acid, 1,1-dimethylethyl ester]
86	CC(C)(C)OC(=O)N[C@@H](Cc1ccccc1)[C@H](O)CNC[C@@H](O)[C@H](Cc1ccccc1)NC(=O)CC(O)CO (stereo partly drawn) [Compound 255, [1S-[1R*,2S*(2S*,3R*)]]-[3-[[3-[(3,4-Dihydroxy-1-oxo-butyl)amino]-2-hydroxy-4-phenylbutyl]amino]-2-hydroxy-1-(phenylmethyl)propyl]carbamic acid, 1,1-dimethylethyl ester]
90	CC(C)(C)OC(=O)N[C@@H](Cc1ccccc1)[C@H](O)CNC[C@@H](O)[C@H](Cc1ccccc1)NC(=O)OC(C)(C)COCc1ccccc1 [Compound 157, [1S-(1R*,2S*)]-[Iminobis[2-hydroxy-1-(phenylmethyl)-3,1-propanediyl)]biscarbamic acid, 1,1-dimethylethyl 1,1-dimethyl-2-(phenylmethoxy)-ethyl ester]
61	CC(C)(C)OC(=O)N[C@@H](Cc1ccccc1)[C@H](O)CNC[C@@H](O)[C@H](Cc1ccccc1)N1CC(C)(C)OC1=O [Compound 140, [1S-[1R*,2S*(2S*,3R*)]]-[3-[[3-(5,5-Dimethyl-2-oxo-3-oxazolidinyl)-2-hydroxy-4-phenylbutyl]amino]-2-hydroxy-1-(phenylmethyl)-propyl]carbamic acid, 1,1-dimethylethyl ester]
83	CC(C)(C)OC(=O)N[C@@H](Cc1ccccc1)[C@H](O)CNC[C@@H](O)[C@H](Cc1ccccc1)NC(=O)OC[C@H](O)CO [Compound 231, [1S-(1R*,2S*),(S*)]-[Iminobis[2-hydroxy-1-(phenylmethyl)-3,1-propanediyl]]biscarbamic acid, 2,3-dihydroxypropyl 1,1-dimethylethyl ester]
30	CO[C@H](CNC[C@@H](O)[C@H](Cc1ccccc1)NC(=O)OC(C)(C)C)[C@H](Cc1ccccc1)NC(=O)OC(C)(C)C [Compound 142, [1S-[1R*,2S*(2S*,3R*)]]-[3-[[3-[[(1,1-Dimethylethoxy)carbonyl]amino]-2-hydroxy-4-phenylbutyl]amino]-2-methoxy-1-(phenylmethyl)propyl]carbamic acid 1,1-dimethylethyl ester]
57	CC(C)(C)OC(=O)N[C@@H](Cc1ccccc1)[C@H](O)CNC[C@@H](O)[C@@H](Cc1ccccc1)NC(=O)OC(C)(C)C [Compound 26i, [1R-[1R*,2R*(2R*,3S*)]]-3-[[3-[[(1,1-Dimethylethoxy)carbonyl]amino]-2-hydroxy-4-phenylbutyl]amino]-2-hydroxy-1-(phenylmethyl)propyl]carbamic acid, 1,1-dimethylethyl ester]
